# Source: paper PMC6489322, “Biochemical characterization of recombinant Avihepatovirus 3C protease and its localization” (Virology Journal, 2019)
# Target: T1, DHAV 3C protease (avihepatovirus A1, UniProt Q076B4)
# T1 construct: mature 3C cut from the genome polyprotein (aa 1614-1794, 181 aa); N-terminal His6 tag, pET32a (NdeI/HindIII), E. coli BL21, Ni-NTA; tag removal not described
# Experiment: FRET peptide cleavage assay, inhibition
# Type: biochemical
# Conditions: 5 uM protease, 20 uM Dabcyl-ASFMNQSKVRRFE-Edans; inhibitor at 50 and 100 uM; cleavage buffer (assay optimum pH 7.0, 150 mM NaCl, 37 °C)
smiles,measurement,value
"CCOC(=O)/C=C/[C@H](C[C@@H]1CCNC1=O)NC(=O)[C@@H](CC(=O)[C@@H](NC(=O)c1cc(C)on1)C(C)C)Cc1ccc(F)cc1 [AG7088, Rupintrivir]","FRET peptide cleavage assay, inhibition",The results showed that AG7088 exhibited inhibitory activity against the DHAV 3C protease
